In assay [1] the test system is MCF7. As to the kind of experiment: Cytotoxicity against human MCF7 cells measured after 72 hrs by MTT assay. The assay is classed as functional, cell-based. Conditions: MCF7, 72 h.
For assay [2], the system named is Escherichia coli. As to the kind of experiment: Antibacterial activity against Escherichia coli ATCC 25922 incubated for 16 to 18 hrs by CLSI based broth dilution method. Conditions: time 16-18 hrs. The assay is classed as functional. (In general: In broth dilution the organism is exposed to a series of concentrations in liquid medium.)
In assay [3] the test system is Enterococcus faecalis. The assay is described as follows: Antibacterial activity against Enterococcus faecalis ATCC 29212 incubated for 16 to 18 hrs by CLSI based broth dilution method. The assay is classed as functional. Conditions: time 16-18 hrs.
Assay [4] has as its system Acinetobacter baumannii. As to the kind of experiment: Antibacterial activity against Acinetobacter baumannii ATCC 19606 incubated for 16 to 18 hrs by CLSI based broth dilution method. The assay is classed as functional. Conditions: time 16-18 hrs.
Assay [5] deals with Staphylococcus aureus. The assay is described as follows: Antibacterial activity against Staphylococcus aureus ATCC 29213 incubated for 16 to 18 hrs by CLSI based broth dilution method. The class given is functional. The settings on record: time 16-18 hrs.
Assay [6] has as its system Staphylococcus epidermidis. The assay is described as follows: Antibacterial activity against Staphylococcus epidermidis ATCC 12228 incubated for 16 to 18 hrs by CLSI based broth dilution method. The assay is classed as functional. Conditions: time 16-18 hrs.
Assay [7] deals with Staphylococcus aureus. As to the kind of experiment: Antibacterial activity against methicillin-resistant Staphylococcus aureus ATCC 43300 incubated for 16 to 18 hrs by CLSI based broth dilution method. Conditions: time 16-18 hrs. The class given is functional.
Assay [8] has as its system HCT-116. The assay is described as follows: Cytotoxicity against human HCT-116 cells measured after 72 hrs by MTT assay. The assay is classed as functional, cell-based. The settings on record: HCT-116, 72 h. A general note: Tetrazolium dyes change colour on reduction, which living cells bring about.
Assay [9] concerns HGC-27. As to the kind of experiment: Cytotoxicity against human HGC-27 cells measured after 72 hrs by MTT assay. The assay is classed as functional, cell-based. Conditions: HGC-27, 72 h.
Assay [10] deals with HepG2. As to the kind of experiment: Cytotoxicity against human HepG2 cells measured after 72 hrs by MTT assay. The class given is functional, cell-based. Conditions: HepG2, 72 h.
In assay [11] the target is T1, Dihydrofolate reductase (Homo sapiens) (UniProt P00374).
T1 sequence (whole entry): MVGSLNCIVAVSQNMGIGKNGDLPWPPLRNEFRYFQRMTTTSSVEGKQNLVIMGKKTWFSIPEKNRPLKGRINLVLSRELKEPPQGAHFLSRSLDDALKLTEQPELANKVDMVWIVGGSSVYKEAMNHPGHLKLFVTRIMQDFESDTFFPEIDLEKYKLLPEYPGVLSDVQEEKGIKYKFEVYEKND
As to the kind of experiment: Inhibition of human DHFR at 1 uM incubated for 10 mins in presence of NADPH by colorimetry based analysis relative to control.

These results are taken from ChEMBL document CHEMBL5370585, “Exploration and Biological Evaluation of 1,3-Diamino-7H-pyrrol[3,2-f]quinazoline Derivatives as Dihydrofolate Reductase Inhibitors” (J Med Chem, 2023).

pIC50: −log10 of the molar value. Values after ≈ are worked out from the molar mass of the structure shown.

In the case of `Nc1nc(N)c2c(ccc3c2ccn3Cc2ccc3sc(N)nc3c2)n1`, the pIC50 in [1], in assay [8], in [9] and in [10] was below 5.00 throughout. The MIC (usually the smallest concentration in the dilution series that meets the test's criterion for growth inhibition) in assay [2] is above 8 µg/mL; in [3], above 8 µg/mL; in [4], above 32 µg/mL; in [5], above 8 µg/mL; in assay [6], 2 µg/mL (≈ 5.53 µM); in assay [7], 8 µg/mL (≈ 22.1 µM).
For the compound `Nc1nc(N)c2c(ccc3c2ccn3Cc2cccc3sc(N)nc23)n1`, the pIC50 (as a rule, −log10 of the IC50, conventionally taken in molar units) in assay [1] is 6.10; in assay [8], 5.24; in [9], 5.75; in assay [10], 6.59. In addition, the MIC is 0.5 µg/mL (≈ 1.38 µM) in [2]; 0.25 µg/mL (≈ 0.692 µM) in [3]; 32 µg/mL (≈ 88.5 µM) in assay [4]; 0.25 µg/mL (≈ 0.692 µM) in [5]; at most 0.004 µg/mL in assay [6]; 0.125 µg/mL (≈ 0.346 µM) in assay [7]. The inhibition (usually how much of the control response was suppressed) in assay [11] stood at 77.4%.
Regarding `Nc1nc(N)c2c(ccc3c2cc(-c2ccccc2)n3Cc2nc3ccccc3s2)n1`, the pIC50 in assay [1], in assay [8], in [9] and in [10] was below 6.00 each time. Also, the MIC in assay [2] was above 128 µg/mL; in assay [3] it was 32 µg/mL (≈ 75.7 µM); in [4], above 128 µg/mL; in [5], above 128 µg/mL; in assay [6], 64 µg/mL (≈ 151 µM); in [7] it was above 128 µg/mL. Moreover, the inhibition in assay [11] came to 17.3%.
Take `Nc1nc(N)c2c(ccc3c2ccn3Cc2ccc3cc(C(=O)O)ccc3c2)n1`: the pIC50 in assay [1] was 6.26; in [8], 7.00; in assay [9], 7.02; in [10], 6.85. Also, the MIC in assay [2] is above 128 µg/mL; in [3], 50 µg/mL (≈ 130 µM); in assay [5], 0.004 µg/mL (≈ 0.0104 µM); in [6], at most 0.004 µg/mL; in assay [7], 0.004 µg/mL (≈ 0.0104 µM). The inhibition in [11] came to 98.8%.
As for `Nc1nc(N)c2c(ccc3c2ccn3Cc2ccc(C(=O)O)c3ccccc23)n1`, the pIC50 in assay [1], in assay [8], in [9] and in assay [10] was below 5.00 throughout. Moreover, the MIC in assay [2] was above 8 µg/mL; in assay [3], 2 µg/mL (≈ 5.22 µM); in assay [4], above 32 µg/mL; in assay [5], 2 µg/mL (≈ 5.22 µM); in assay [6], 0.5 µg/mL (≈ 1.3 µM); in assay [7], 2 µg/mL (≈ 5.22 µM). Besides, the inhibition in [11] worked out at 93.5%.
In the case of `Nc1nc(N)c2c(ccc3c2ccn3Cc2ccc3cc(C(=O)O)ccc3n2)n1`, the pIC50 is 5.01 in assay [1], 5.02 in [8], 5.38 in assay [9] and 5.33 in assay [10]. Further, the MIC is above 128 µg/mL in [2]; above 8 µg/mL in [3]; 32 µg/mL (≈ 83.2 µM) in [5]; 0.25 µg/mL (≈ 0.65 µM) in assay [6]; 32 µg/mL (≈ 83.2 µM) in [7]. Further, in assay [11], the inhibition is 77.4%.
On to `COC(=O)c1ccc2nc(Cn3ccc4c5c(N)nc(N)nc5ccc43)ccc2c1`, for which the pIC50 in assay [1] is 6.07; in assay [8] it was 6.68; in assay [9], above 7.00; in assay [10], 6.37. Further, the MIC in assay [2] turned out to be 2 µg/mL (≈ 5.02 µM); in [3] it was 0.25 µg/mL (≈ 0.627 µM); in assay [5], 0.5 µg/mL (≈ 1.25 µM); in assay [6], 0.25 µg/mL (≈ 0.627 µM); in [7], 0.25 µg/mL (≈ 0.627 µM). Moreover, in assay [11], the inhibition came to 64.5%.
As to `COc1cc(Cc2cnc(N)nc2N)c2c(c1OC)OC(C1CC1)C=C2` (stereo not drawn), the MIC was 1 µg/mL (≈ 2.82 µM) in [2]; 0.06 µg/mL (≈ 0.169 µM) in assay [3]; 0.06 µg/mL (≈ 0.169 µM) in assay [5]; at most 0.004 µg/mL in assay [6]; 0.06 µg/mL (≈ 0.169 µM) in assay [7].
`CCOC(=O)c1ccc(Cn2ccc3c4c(N)nc(N)nc4ccc32)c2ccccc12`: the pIC50 in assay [1] is 5.08; in assay [8], 6.06; in assay [9] it was above 7.00; in assay [10] it was 6.28. Also, the MIC in [2] was 64 µg/mL (≈ 156 µM); in assay [3], 0.5 µg/mL (≈ 1.22 µM); in [5], 0.5 µg/mL (≈ 1.22 µM); in assay [6], at most 0.06 µg/mL; in assay [7] it was 0.25 µg/mL (≈ 0.608 µM). The inhibition in assay [11] is 70.9%.
Take `Nc1nc(N)c2c(ccc3c2ccn3Cc2ccc(Br)c3ccccc23)n1`: the pIC50 is 6.72 in assay [1], above 7.00 in [8], above 7.00 in assay [9] and above 7.00 in assay [10]. The MIC in assay [2] is 1 µg/mL (≈ 2.39 µM); in assay [3], 0.125 µg/mL (≈ 0.299 µM); in assay [5], 0.25 µg/mL (≈ 0.598 µM); in [6] it was at most 0.004 µg/mL; in [7] it was 0.125 µg/mL (≈ 0.299 µM). Moreover, in assay [11], the inhibition turned out to be 74.1%.
In the case of `COC(=O)c1ccc2nc(Cn3ccc4c5c(N)nc(N)nc5ccc43)sc2c1`, the pIC50 in assay [1] was below 5.00; in [8], 6.14; in assay [9], 6.62; in [10] it was 6.31. In addition, the MIC in assay [2] is above 8 µg/mL; in assay [3], 2 µg/mL (≈ 4.94 µM); in assay [4], above 32 µg/mL; in assay [5] it was 4 µg/mL (≈ 9.89 µM); in assay [6], 0.008 µg/mL (≈ 0.0198 µM); in assay [7], 2 µg/mL (≈ 4.94 µM).
On to `COC(=O)c1ccc(Cn2ccc3c4c(N)nc(N)nc4ccc32)c2ccccc12`, for which the pIC50 in assay [1] was 5.88; in assay [8], 6.74; in assay [9] it was above 7.00; in assay [10], 6.72. The MIC in [2] is 2 µg/mL (≈ 5.03 µM); in assay [3], 0.016 µg/mL (≈ 0.0403 µM); in assay [5], 0.004 µg/mL (≈ 0.0101 µM); in assay [6] it was at most 0.004 µg/mL; in assay [7], 0.004 µg/mL (≈ 0.0101 µM). In assay [11], the inhibition was found to be 83.9%.
With `COc1ccc2nc(Cn3ccc4c5c(N)nc(N)nc5ccc43)sc2c1`, the pIC50 is 5.92 in [1], 5.35 in assay [8], 6.09 in assay [9] and 5.57 in assay [10]. In addition, the MIC in [2] is 2 µg/mL (≈ 5.31 µM); in [3], 0.5 µg/mL (≈ 1.33 µM); in assay [5], 0.5 µg/mL (≈ 1.33 µM); in assay [6], at most 0.004 µg/mL; in assay [7] it was 0.25 µg/mL (≈ 0.664 µM). The inhibition in assay [11] amounted to 38.7%.
In the case of `Nc1nc(N)c2c(ccc3c2ccn3Cc2ccc3ccccc3c2)n1`, the pIC50 in [1] is below 6.00; in assay [8], 7.30; in assay [9] it was 7.54; in assay [10] it was 6.96. The MIC in assay [2] was found to be 0.5 µg/mL (≈ 1.47 µM); in assay [3], 0.5 µg/mL (≈ 1.47 µM); in assay [5], 0.5 µg/mL (≈ 1.47 µM); in assay [6], 0.5 µg/mL (≈ 1.47 µM); in assay [7], 0.25 µg/mL (≈ 0.737 µM). Further, in assay [11], the inhibition was 70.9%.
`Cc1cc2c3c(N)nc(N)nc3ccc2n1Cc1ccc(-c2ccccc2)cc1`: the pIC50 was 5.83 in [1], 5.65 in assay [8], 5.15 in assay [9] and 5.88 in [10]. The MIC in assay [2] is above 8 µg/mL; in [3], 4 µg/mL (≈ 10.5 µM); in assay [4], above 32 µg/mL; in [5] it was 4 µg/mL (≈ 10.5 µM); in assay [6], at most 0.004 µg/mL; in assay [7] it was 4 µg/mL (≈ 10.5 µM).
For `Nc1nc(N)c2c(ccc3c2ccn3Cc2ccc(B(O)O)c3ccccc23)n1`, the pIC50 is 6.96 in [1], above 7.00 in [8], above 7.00 in assay [9] and above 7.00 in assay [10]. For the same compound, the MIC in assay [2] is 1 µg/mL (≈ 2.61 µM); in [3], 0.125 µg/mL (≈ 0.326 µM); in assay [5], 0.25 µg/mL (≈ 0.652 µM); in assay [6], at most 0.004 µg/mL; in assay [7] it was 0.125 µg/mL (≈ 0.326 µM). For the same compound, in assay [11], the inhibition is 77.4%.
